Patent publication US9274101B2 (BIOLOG, Inc., priority 2001, dated 2016)
Where a SMILES comes first, the peptide text is derived from it.

Assays:
E. coli MG1655 = format: cell-based, Escherichia coli
HepG2 cells = HepG2 cells cultured on CYTODEX 3 microcarriers, energy sources; format: cell-based, human; settings: for activity at 30 µM / activity at 100 µM / activity at 330 µM / activity at 1000 µM / activity at 3300 µM / activity at 10000 µM / activity at 15000 µM / activity at 20000 µM: Homo sapiens, HepG2, 68 h, read-out: Responses of HepG2 Cells Cultured on Microcarriers After 68 hours in Culture and a 4 hour Color Development Period
Experimental: In this Example, methods for testing adherent cells cultured in suspension, for their ability to use multiple carbon sources are described. HepG2 cells were cultured as described in Example 30.
HepG2 cells were harvested by trypsinization for 3 minutes in 0.25% trypsin-1 mM EDTA and resuspended in an equal volume of culture medium. A viable cell count was obtained by trypan blue exclusion and the appropriate volume of the cell suspension to have 2.7×10^6 cells/0.1 gm CYTODEX 3 (Sigma C3275) microcarrier beads was determined. Microcarrier beads had been previously prepared by 1) rehydration in calcium-magnesium free (CMF) DPBS for 3 hours, 2) autoclaving for 15 minutes, and 3) washing twice in MEM without serum. The cell suspension was added to the beads in a 50 mL tube, and the volume adjusted to 5 mL. Cells were allowed to attach for 1 hour in an atmosphere of 5% CO2, 90-100% humidity, and 37° C., with resuspension every 15 minutes. The microcarriers were transferred to a 100×15 mm Petri dish in a total volume of 20 mL. Cultures were maintained as stationary cultures until used for assay.
The thixotropic suspending agent, methylcellulose (1500 cps, Sigma M0555), was included in the medium to keep the microcarriers suspended so that they could be accurately pipetted. The methylcellulose was prepared by autoclaving in 20 mL tissue culture water for 30 minutes, then mixing by shaking for 1 hour. The initial concentration of methylcellulose was […]. The methylcellulose was then diluted 1:1 in 2× DME with or without glucose, then supplemented with 10% HI FBS; this yields a methylcellulose concentration of 1.36%. Beads were transferred to a 50 mL tube, allowed to settle and resuspended in DPBS. The washed beads were then resuspended in DME with 10% HI FBS and penicillin-streptomycin but without glucose, L-glutamine, sodium pyruvate, or phenol red. An equal volume of 1.36% methylcellulose was added and mixed by pipetting.
For the assay, 70 μL of DME with 10% HI FBS and penicillin-streptomycin but without glucose, L-glutamine, sodium pyruvate, or phenol red were added to each well, followed by 30 μL of the appropriate dilution of each test energy source. Stocks of 133 mM of each test chemical were prepared in tissue culture grade water, sterile filtered, and dilutions were prepared in a master plate so that, upon dilution into a regular 96-well MICROPLATE a total well volume of 200 μL, the final concentrations would be 0.033 to 20 mM. Negative control wells received 30 μL of tissue culture grade water. One hundred μL of beads were pipetted into each well. For each plate containing energy sources and cells, a second, control plate containing only energy sources was prepared. Plates were incubated at 5% CO2, 90-100% humidity, and 37° C. for 68 hours prior to addition of the MTS/MPMS colorometric reagent (10 μL/well). The color formed in each well 4-8 hours after addition of the colorimetric reagent, was measured with a plate reader at 490 nm with a reference wavelength of 650 nm. OD values from the control plate were subtracted from the OD values obtained with cells prior to normalizing the data to % negative control (cells without added energy source).

ten strains of E. coli = format: cell-based, Escherichia coli

SMILES	suitability as nitrogen source (growth, purple color) (E. coli MG1655)	other results
CCCCCCC(N)C(=O)O (racemic) [DL-α-amino-caprylic acid]	not suitable	
CCC(N)C(=O)O (racemic) [DL-α-amino-n-butyric acid]	not suitable	
CCCC(N)C(=O)O (stereo not shown) [2-amino-valeric acid]	not suitable	
C[C@@H](N)c1ccccc1 [(R)-(+)-α-phenylethylamine]	not suitable	
N[C@H]1C(O)O[C@H](CO)[C@H](O)[C@@H]1O (stereo partly drawn) [D(+)-galactosamine]	weak positive	
N[C@H]1C(O)O[C@H](CO)[C@@H](O)[C@@H]1O (stereo partly drawn) [D(+)-glucosamine]	positive	
NC(=O)C[C@@H](N)C(=O)O [D-asparagine]	not suitable	
N[C@H](CCC(=O)O)C(=O)O [D-glutamic acid]	not suitable	
NCCCC[C@@H](N)C(=O)O [D-lysine]	not suitable	
N[C@@H]1C(O)O[C@H](CO)[C@@H](O)[C@@H]1O (stereo partly drawn) [D-mannosamine]	weak positive	
CC(C)[C@@H](N)C(=O)O [D-valine]	not suitable	
NC(=O)NCCC[C@H](N)C(=O)O [L-citrulline]	not suitable	
CC[C@H](C)[C@H](N)C(=O)O [L-isoleucine]	not suitable	
CC(C)C[C@H](N)C(=O)O [L-leucine]	not suitable	
NCCCC[C@H](N)C(=O)O [L-lysine]	not suitable	
N[C@@H](Cc1ccc(O)cc1)C(=O)O [L-tyrosine]	not suitable	
CC(=O)N[C@H]1C(O)O[C@H](CO)[C@H](O)[C@@H]1O (stereo partly drawn) [N-acetyl-D-galactosamine]	not suitable	
CC(=O)NCC(=O)O [N-acetyl-glycine]	not suitable	
OC[C@H]1O[C@@](CO)(O[C@H]2O[C@H](CO)[C@@H](O)[C@H](O)[C@H]2O)[C@@H](O)[C@@H]1O [Sucrose]		activity at 30 µM (HepG2 cells; Conc. 0.03 mM): 90.2%; activity at 100 µM (HepG2 cells; Conc. 0.10 mM): 109%; activity at 330 µM (HepG2 cells; Conc. 0.33 mM): 98.6%; activity at 1000 µM (HepG2 cells; Conc. 1.00 mM): 95.2%; activity at 3300 µM (HepG2 cells; Conc. 3.3 mM): 94%; activity at 10000 µM (HepG2 cells; Conc. 10 mM): 83.3%; activity at 15000 µM (HepG2 cells; Conc. 15 mM): 66.8%; activity at 20000 µM (HepG2 cells; Conc. 20 mM): 59.5%; carbon source utilization (ten strains of E. coli): + and −; carbon source utilization (text) (ten strains of E. coli): three of the four strains were positive
CC(N)=O [acetamide]	not suitable	
Nc1ncnc2nc[nH]c12 [adenine]	not suitable	
N=C(N)NCCCCN [agmatine]	not suitable	
C[C@H](N)C(=O)N[C@@H](Cc1cnc[nH]1)C(=O)O [ala-his] (H-Ala-His-OH)	not suitable	
C[C@H](N)C(=O)N[C@H](C(=O)O)[C@@H](C)O [ala-thr] (H-Ala-Thr-OH)	positive	

SMILES	suitability as nitrogen source (growth, purple color) (E. coli MG1655)	other results
O=C1NC(=O)C(=O)C(=O)N1 [alloxan]	not suitable	
CCN [ethylamine]	not suitable	
NCCN [ethylenediamine]	not suitable	
NC=O [formamide]	not suitable	
O=C(CO)[C@@H](O)[C@H](O)[C@H](O)CO [fructose]		activity at 30 µM (HepG2 cells; Conc. 0.03 mM): 97.1%; activity at 100 µM (HepG2 cells; Conc. 0.10 mM): 108%; activity at 330 µM (HepG2 cells; Conc. 0.33 mM): 123%; activity at 1000 µM (HepG2 cells; Conc. 1.00 mM): 115%; activity at 3300 µM (HepG2 cells; Conc. 3.3 mM): 107%; activity at 10000 µM (HepG2 cells; Conc. 10 mM): 94.4%; activity at 15000 µM (HepG2 cells; Conc. 15 mM): 72.1%; activity at 20000 µM (HepG2 cells; Conc. 20 mM): 50.3%
O=C[C@H](O)[C@@H](O)[C@@H](O)[C@H](O)CO [galactose]		activity at 30 µM (HepG2 cells; Conc. 0.03 mM): 97.1%; activity at 100 µM (HepG2 cells; Conc. 0.10 mM): 111%; activity at 330 µM (HepG2 cells; Conc. 0.33 mM): 121%; activity at 1000 µM (HepG2 cells; Conc. 1.00 mM): 109%; activity at 3300 µM (HepG2 cells; Conc. 3.3 mM): 117%; activity at 10000 µM (HepG2 cells; Conc. 10 mM): 94.4%; activity at 15000 µM (HepG2 cells; Conc. 15 mM): 81%; activity at 20000 µM (HepG2 cells; Conc. 20 mM): 65.6%
C[C@H](NC(=O)CN)C(=O)O [gly-ala] (H-Gly-Ala-OH)	positive	
NCC(=O)N[C@@H](CC(N)=O)C(=O)O [gly-asn] (H-Gly-Asn-OH)	positive	
NCC(=O)N[C@@H](CCC(N)=O)C(=O)O [gly-gln] (H-Gly-Gln-OH)	positive	
CSCC[C@H](NC(=O)CN)C(=O)O [gly-met]	positive	
NCC(=O)O [glycine]	positive	
O=C(O)CNC(=O)c1ccccc1 [hippuric acid]	not suitable	
NCCc1c[nH]cn1 [histamine]	not suitable	
CC(O)C(N)=O (stereo not shown) [lactamide]	not suitable	
CSCC[C@H](N)C(=O)N[C@@H](C)C(=O)O [met-ala] (H-Met-Ala-OH)	not suitable	
CC(CC(=O)O)C(=O)O (stereo not shown) [methyl succinate]		Responses of HepG2 Cells Cultured on Microcarriers After 68 hours in Culture and a 4 hour Color Development Period (HepG2 cells; Conc. 0.03 mM): 90.6 % of negative control; Responses of HepG2 Cells Cultured on Microcarriers After 68 hours in Culture and a 4 hour Color Development Period (HepG2 cells; Conc. 0.10 mM): 83.3 % of negative control; Responses of HepG2 Cells Cultured on Microcarriers After 68 hours in Culture and a 4 hour Color Development Period (HepG2 cells; Conc. 0.33 mM): 98.6 % of negative control; Responses of HepG2 Cells Cultured on Microcarriers After 68 hours in Culture and a 4 hour Color Development Period (HepG2 cells; Conc. 1.00 mM): 107.5 % of negative control; Responses of HepG2 Cells Cultured on Microcarriers After 68 hours in Culture and a 4 hour Color Development Period (HepG2 cells; Conc. 3.3 mM): 124.3 % of negative control; Responses of HepG2 Cells Cultured on Microcarriers After 68 hours in Culture and a 4 hour Color Development Period (HepG2 cells; Conc. 10 mM): 162.7 % of negative control; Responses of HepG2 Cells Cultured on Microcarriers After 68 hours in Culture and a 4 hour Color Development Period (HepG2 cells; Conc. 15 mM): 181.5 % of negative control; Responses of HepG2 Cells Cultured on Microcarriers After 68 hours in Culture and a 4 hour Color Development Period (HepG2 cells; Conc. 20 mM): 112.4 % of negative control
O[C@H]1[C@H](O)[C@@H](O)[C@H](O)[C@@H](O)[C@H]1O [myoinositol]		activity at 30 µM (HepG2 cells; Conc. 0.03 mM): 86.3%; activity at 100 µM (HepG2 cells; Conc. 0.10 mM): 110%; activity at 330 µM (HepG2 cells; Conc. 0.33 mM): 113%; activity at 1000 µM (HepG2 cells; Conc. 1.00 mM): 99.8%; activity at 3300 µM (HepG2 cells; Conc. 3.3 mM): 108%; activity at 10000 µM (HepG2 cells; Conc. 10 mM): 89%; activity at 15000 µM (HepG2 cells; Conc. 15 mM): 78.3%; activity at 20000 µM (HepG2 cells; Conc. 20 mM): 61.4%
CCCCCN [n-amylamine]	not suitable	
CCCCN [n-butylamine]	not suitable	
O=[N+]([O-])[O-].[K+] [potassium nitrate]	not suitable	
NCCCCN [putrescine]	not suitable	
O=NO [sodium nitrite]	not suitable	
Cc1c[nH]c(=O)[nH]c1=O [thymine]	not suitable	
NC(N)=O [urea]	not suitable	
